Assay results from US20250034216A1, “STEREOSELECTIVE COVALENT LIGANDS FOR ONCOGENIC AND IMMUNOLOGICAL PROTEINS” (The Scripps Research Institute, priority 2021, published 2025).

Legend:
Test in all cases: IA-DTB cysteine engagement
Type in all cases: binding
ACTL8_C197 = molecular target: T1, ACTL8_C197 (Homo sapiens, UniProt Q9H568); settings: 22Rv1 cells, 20 μM probe, 1 h, relative to DMSO
T1 construct: endogenous in cells; host or cells: 22Rv1
T1 sequence (Q9H568 1-366): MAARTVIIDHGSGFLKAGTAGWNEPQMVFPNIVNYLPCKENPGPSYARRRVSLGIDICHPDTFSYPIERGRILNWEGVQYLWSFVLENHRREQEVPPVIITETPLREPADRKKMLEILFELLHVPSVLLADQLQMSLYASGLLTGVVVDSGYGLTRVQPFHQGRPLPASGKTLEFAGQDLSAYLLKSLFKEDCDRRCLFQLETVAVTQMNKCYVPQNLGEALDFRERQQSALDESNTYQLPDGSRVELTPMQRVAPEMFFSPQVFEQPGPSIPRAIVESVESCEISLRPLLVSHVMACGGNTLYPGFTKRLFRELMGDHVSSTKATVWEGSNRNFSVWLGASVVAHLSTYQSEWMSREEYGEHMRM
Method in brief: (§1)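 Probe-exposed cells were lysed, IA-DTB-labeled, trypsinized and streptavidin-enriched. Multiplexed TMT quantitation gave engagement ratios versus DMSO, with non-tryptic peptides excluded and intensities normalized to median summed signal.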

DCTN4_C258 = molecular target: T2, DCTN4_C258 (Homo sapiens, UniProt Q9UJW0); settings: 22Rv1 cells, 20 μM probe, 1 h, relative to DMSO
T2 construct: endogenous in cells; host or cells: 22Rv1
T2 sequence (Q9UJW0 whole entry): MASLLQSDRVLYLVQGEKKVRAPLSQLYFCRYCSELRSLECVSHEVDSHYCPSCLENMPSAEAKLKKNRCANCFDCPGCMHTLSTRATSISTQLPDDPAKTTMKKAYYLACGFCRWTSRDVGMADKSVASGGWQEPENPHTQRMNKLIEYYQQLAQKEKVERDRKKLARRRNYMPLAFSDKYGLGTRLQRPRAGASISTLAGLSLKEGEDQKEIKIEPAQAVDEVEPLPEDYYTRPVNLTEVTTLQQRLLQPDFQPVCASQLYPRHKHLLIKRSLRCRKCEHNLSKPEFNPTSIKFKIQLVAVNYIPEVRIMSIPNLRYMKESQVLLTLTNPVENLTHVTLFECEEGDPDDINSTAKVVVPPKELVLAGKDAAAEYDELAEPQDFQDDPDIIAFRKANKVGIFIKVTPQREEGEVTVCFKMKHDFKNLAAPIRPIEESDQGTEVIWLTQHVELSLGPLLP
Method in brief: as §1

REEP5_C18 = molecular target: T3, REEP5_C18 (Homo sapiens, UniProt Q00765); settings: 22Rv1 cells, relative to DMSO; for % engagement REEP5_C18: 20 μM probe, 1 h; for % engagement REEP5_18: 5 μM probe, 1 h (FIG. 5B)
T3 construct: endogenous in cells; host or cells: 22Rv1
T3 sequence (Q00765 whole entry): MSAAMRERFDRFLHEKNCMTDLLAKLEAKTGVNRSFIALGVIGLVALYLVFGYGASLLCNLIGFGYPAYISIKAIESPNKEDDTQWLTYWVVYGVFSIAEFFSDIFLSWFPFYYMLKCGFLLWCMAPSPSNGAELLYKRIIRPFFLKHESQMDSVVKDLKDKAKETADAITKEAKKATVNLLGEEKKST
Method in brief: as §1

VPS18_C522 = molecular target: T4, VPS18_C522 (Homo sapiens, UniProt Q9P253); settings: 22Rv1 cells, 20 μM probe, 1 h, relative to DMSO
T4 construct: endogenous in cells; host or cells: 22Rv1
T4 sequence (Q9P253 1-973): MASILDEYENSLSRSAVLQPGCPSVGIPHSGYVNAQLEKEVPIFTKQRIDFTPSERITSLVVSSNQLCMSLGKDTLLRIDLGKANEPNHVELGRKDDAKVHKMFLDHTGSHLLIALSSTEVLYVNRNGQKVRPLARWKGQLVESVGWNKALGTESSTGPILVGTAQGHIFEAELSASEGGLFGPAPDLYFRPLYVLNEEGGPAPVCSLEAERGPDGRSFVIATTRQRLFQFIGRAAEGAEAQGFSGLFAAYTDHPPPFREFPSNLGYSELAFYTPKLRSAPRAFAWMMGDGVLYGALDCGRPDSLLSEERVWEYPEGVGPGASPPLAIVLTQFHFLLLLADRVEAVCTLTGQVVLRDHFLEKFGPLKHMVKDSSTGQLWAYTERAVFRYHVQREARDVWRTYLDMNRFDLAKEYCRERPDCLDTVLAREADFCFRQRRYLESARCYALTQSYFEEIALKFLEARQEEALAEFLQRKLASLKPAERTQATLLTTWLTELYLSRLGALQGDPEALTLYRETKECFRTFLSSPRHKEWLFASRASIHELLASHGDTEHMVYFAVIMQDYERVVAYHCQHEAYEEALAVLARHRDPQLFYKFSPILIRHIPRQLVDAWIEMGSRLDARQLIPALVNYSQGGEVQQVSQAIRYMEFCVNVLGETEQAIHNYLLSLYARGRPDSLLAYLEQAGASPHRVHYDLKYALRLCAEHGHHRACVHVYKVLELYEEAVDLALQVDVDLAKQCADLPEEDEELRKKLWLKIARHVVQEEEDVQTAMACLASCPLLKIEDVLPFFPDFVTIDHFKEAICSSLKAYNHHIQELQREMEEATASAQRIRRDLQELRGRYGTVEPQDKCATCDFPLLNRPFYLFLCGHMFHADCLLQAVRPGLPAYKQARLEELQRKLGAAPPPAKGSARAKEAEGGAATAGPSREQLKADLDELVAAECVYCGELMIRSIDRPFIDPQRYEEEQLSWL
Method in brief: as §1

C=CC(=O)N1C[C@@H](c2ccc(Br)cc2)[C@H]1C(=O)Nc1cccc2cccnc12 [MY-1A, (2S,3R)-1-acryloyl-3-(4-bromophenyl)-N-(quinolin-8-yl)azetidine-2-carboxamide]
% engagement ACTL8_C197 (ACTL8_C197): 14% | % engagement DCTN4_C258 (DCTN4_C258): 27.5% | % engagement REEP5_C18 (REEP5_C18): 91.75% | % engagement VPS18_C522 (VPS18_C522): −22%

C=CC(=O)N1C[C@H](c2ccc(Br)cc2)[C@@H]1C(=O)Nc1cccc2cccnc12 [MY-1B, (2R,3S)-1-acryloyl-3-(4-bromophenyl)-N-(quinolin-8-yl)azetidine-2-carboxamide]
% engagement ACTL8_C197 (ACTL8_C197): 66.25% | % engagement DCTN4_C258 (DCTN4_C258): 68% | % engagement REEP5_18 (REEP5_C18): 79.00% | % engagement REEP5_C18 (REEP5_C18): 97.5% | % engagement VPS18_C522 (VPS18_C522): 45%

C=CC(=O)N1C[C@H](c2ccc(Br)cc2)[C@H]1C(=O)Nc1cccc2cccnc12 [MY-3A, (2S,3S)-1-acryloyl-3-(4-bromophenyl)-N-(quinolin-8-yl)azetidine-2-carboxamide]
% engagement ACTL8_C197 (ACTL8_C197): 3.25% | % engagement DCTN4_C258 (DCTN4_C258): 15.5% | % engagement REEP5_C18 (REEP5_C18): 88.25% | % engagement VPS18_C522 (VPS18_C522): 88%

C=CC(=O)N1C[C@H](c2ccc(Br)cc2)[C@H]1C(=O)Nc1cccc2cccnc12 [MY-3B, (2S,3S)-1-acryloyl-3-(4-bromophenyl)-N-(quinolin-8-yl)azetidine-2-carboxamide]
% engagement ACTL8_C197 (ACTL8_C197): 36.75% | % engagement DCTN4_C258 (DCTN4_C258): 31.5% | % engagement REEP5_C18 (REEP5_C18): 91.75% | % engagement VPS18_C522 (VPS18_C522): 21%

CC#CC(=O)N1C[C@H](c2ccc(Br)cc2)[C@@H]1C(=O)Nc1cccc2cccnc12 [MY-45B, (2R,3S)-3-(4-bromophenyl)-1-(but-2-ynoyl)-N-(quinolin-8-yl)azetidine-2-carboxamide]
% engagement REEP5_18 (REEP5_C18): 22.75%
